Among the test systems are SW-620; SK-OV-3; UACC-257; NCI-H226; MOLT-4; OVCAR-4; HOP-62; OVCAR-3; Malme-3M; LOX IMVI; ACHN; HCT-116; M14; UACC-62; OVCAR-8; SNB-19; SR; CCRF-CEM.
Holding throughout (experiment): growth of human tumour cells (NCI), 48 h

SMILES strings stand for the structures.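 Tested at 5 concentrations; 48 h exposure; 96-well plates; endpoints linearly interpolated, else capped at highest concentration. Here, GI50 denotes the concentration required for 50% inhibition of growth.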 Active and inactive are the calls of the source. Rule as the data show it: active = GI50 up to about 1.1 µM and inactive = higher.

For `NC(=S)N/N=C(\CC1OC(=O)c2ccccc21)c1ccc(Cl)cc1` (stereo unspecified), the GI50 is 44.8 µM (inactive) in the assay on SW-620; 42.8 µM (inactive) in the assay with SK-OV-3; 46.7 µM (inactive) in the assay on UACC-257; 24.4 µM (inactive) in the assay on NCI-H226; 61.5 µM (inactive) in the assay on MOLT-4; 23.1 µM (inactive) in the assay on OVCAR-4. The GI50 is 23.2 µM (inactive) in the assay on HOP-62; 34.6 µM (inactive) with OVCAR-3; 30.6 µM (inactive) in the assay with Malme-3M; 27.8 µM (inactive) with LOX IMVI; 56.1 µM (inactive) with ACHN; 24.4 µM (inactive) with HCT-116. The GI50 is 43.2 µM (inactive) with M14; 19.6 µM (inactive) in the assay on UACC-62; 18 µM (inactive) in the assay on OVCAR-8; 42.7 µM (inactive) in the assay on SNB-19; 60.7 µM (inactive) with SR.

`O=S(=O)(c1ccccc1)c1nccs1`: the GI50 in the assay on SW-620, in the assay on SK-OV-3, in the assay on UACC-257, in the assay on NCI-H226, with MOLT-4 and with OVCAR-4 was > 100 µM (inactive) in each case. For the same compound, the GI50 with HOP-62, with OVCAR-3, in the assay on LOX IMVI, in the assay with ACHN, in the assay with HCT-116 and in the assay with M14 was > 100 µM (inactive) each time. Further, the GI50 with UACC-62, in the assay on OVCAR-8, with SNB-19 and with SR was > 100 µM (inactive) each time.

`COC(=O)c1sc(C(=O)OC)c2c1C[S+]([O-])C2`: the GI50 in the assay on CCRF-CEM, in the assay on SW-620, in the assay with SK-OV-3, in the assay with UACC-257, in the assay with NCI-H226 and in the assay on MOLT-4 was > 100 µM (inactive) throughout. The GI50 with OVCAR-4, in the assay with OVCAR-3, in the assay with Malme-3M, in the assay on LOX IMVI, in the assay on HCT-116 and with M14 was > 100 µM (inactive) each time. The GI50 in the assay on UACC-62, in the assay with OVCAR-8 and in the assay on SNB-19 was > 100 µM (inactive) in each case.

Consider `CNS(=O)(=O)NNS(=O)(=O)c1ccc(C)cc1`, for which the GI50 in the assay on CCRF-CEM, with SW-620, in the assay with SK-OV-3, in the assay on UACC-257, in the assay on MOLT-4 and in the assay on OVCAR-4 was > 100 µM (inactive) each time. Further, the GI50 in the assay with HOP-62, with OVCAR-3, with Malme-3M, in the assay with ACHN, in the assay with HCT-116 and in the assay on M14 was > 100 µM (inactive) in each case. The GI50 with UACC-62, with OVCAR-8, in the assay on SNB-19 and in the assay on SR was > 100 µM (inactive) in each case.

As for `Cc1ccc2nc(/C(=C/c3ccc(/C=C(\NC(=O)c4ccccc4)c4nc5ccc(C)cc5[nH]4)c(C)c3)NC(=O)c3ccccc3)[nH]c2c1`, the GI50 in the assay with CCRF-CEM was 3.02 µM (inactive); in the assay with SW-620, 5.92 µM (inactive); in the assay with SK-OV-3 it was 13.7 µM (inactive); in the assay with NCI-H226 it was 26.4 µM (inactive); in the assay on MOLT-4, 0.383 µM (active); in the assay on HOP-62, 46.6 µM (inactive). The GI50 with OVCAR-3 is 6.19 µM (inactive); in the assay with Malme-3M, 7.29 µM (inactive); in the assay with ACHN, 8.45 µM (inactive); in the assay with HCT-116, 18.1 µM (inactive); in the assay on M14, 23 µM (inactive); with UACC-62 it was 1.14 µM (inactive). The GI50 was 7.01 µM (inactive) in the assay on OVCAR-8, 31.2 µM (inactive) with SNB-19 and 27.2 µM (inactive) in the assay with SR.

As for `O=C(/N=C(/Nc1ccccc1)SCS/C(=N\C(=O)c1ccco1)Nc1ccccc1)c1ccco1`, the GI50 in the assay with CCRF-CEM is > 100 µM (inactive); with SW-620, > 100 µM (inactive); in the assay on UACC-257 it was > 100 µM (inactive); with NCI-H226, 28 µM (inactive); in the assay with MOLT-4, > 100 µM (inactive); in the assay on OVCAR-4 it was 82.2 µM (inactive). The GI50 in the assay with HOP-62 is 19.5 µM (inactive); in the assay on OVCAR-3 it was 40.8 µM (inactive); in the assay on Malme-3M, > 100 µM (inactive); with LOX IMVI, > 100 µM (inactive); in the assay with ACHN, 38.8 µM (inactive); in the assay with HCT-116, 37.2 µM (inactive). Moreover, the GI50 is > 100 µM (inactive) in the assay with M14, > 100 µM (inactive) in the assay on UACC-62, 50.6 µM (inactive) in the assay with OVCAR-8 and 24 µM (inactive) with SNB-19.

With `O=C(NCCO)c1cc2c(cn1)[nH]c1ccccc12`, the GI50 with CCRF-CEM, with SW-620, with SK-OV-3, in the assay with UACC-257, in the assay on NCI-H226 and with MOLT-4 was > 100 µM (inactive) each time. In addition, the GI50 in the assay on OVCAR-4 was > 100 µM (inactive); with HOP-62, 17.9 µM (inactive); in the assay on OVCAR-3 it was > 100 µM (inactive); with Malme-3M, 22.1 µM (inactive); with LOX IMVI, > 100 µM (inactive); with ACHN, > 100 µM (inactive). Moreover, the GI50 in the assay with HCT-116, in the assay on M14, in the assay with UACC-62, with OVCAR-8 and in the assay with SNB-19 was > 100 µM (inactive) in each case.

On to `CN(C)CCC1(C2=CCCC2)CC/C(=C\c2ccc3c(c2)OCO3)C1=O` (stereo unspecified), for which the GI50 was 16 µM (inactive) with CCRF-CEM; 15.8 µM (inactive) in the assay with SW-620; 15.5 µM (inactive) in the assay on UACC-257; 12.3 µM (inactive) with MOLT-4; 13.5 µM (inactive) with OVCAR-4; 15.8 µM (inactive) with OVCAR-3. Also, the GI50 is 15.6 µM (inactive) in the assay on Malme-3M; 16.1 µM (inactive) with ACHN; 13.2 µM (inactive) with HCT-116; 14.7 µM (inactive) in the assay with M14; 21.5 µM (inactive) with UACC-62; 15.6 µM (inactive) in the assay with OVCAR-8. Also, the GI50 in the assay with SNB-19 was 18.2 µM (inactive).

On to `C#CCC[C@@H]1O[C@@]1(C)CC/C=C(\C)CC/C=C/C=O`, for which the GI50 in the assay with CCRF-CEM was 23.3 µM (inactive); in the assay on SW-620 it was 23.3 µM (inactive); with SK-OV-3, > 100 µM (inactive); in the assay on UACC-257, 23.6 µM (inactive); with NCI-H226, 60.3 µM (inactive); in the assay on MOLT-4 it was 22.4 µM (inactive). Moreover, the GI50 in the assay on HOP-62 is > 100 µM (inactive); with OVCAR-3, 29.8 µM (inactive); in the assay with Malme-3M, 20 µM (inactive); in the assay with LOX IMVI, 18.4 µM (inactive); with ACHN, 50.1 µM (inactive); in the assay on M14, 21.3 µM (inactive). In addition, the GI50 in the assay with UACC-62 was 17.9 µM (inactive); with OVCAR-8 it was 18.6 µM (inactive); with SNB-19 it was 45.1 µM (inactive); with SR, 26.4 µM (inactive).

Take `Cc1cccc(Cl)c1NC(N)=S`: the GI50 is 35.6 µM (inactive) in the assay with CCRF-CEM; 16.6 µM (inactive) in the assay on SW-620; 44.4 µM (inactive) in the assay with SK-OV-3; > 100 µM (inactive) in the assay on UACC-257; 82.8 µM (inactive) in the assay with NCI-H226; 47.1 µM (inactive) in the assay with MOLT-4. For the same compound, the GI50 is 50.9 µM (inactive) in the assay on OVCAR-4; 50.8 µM (inactive) in the assay with HOP-62; 26.4 µM (inactive) in the assay with OVCAR-3; 52 µM (inactive) with Malme-3M; 27.5 µM (inactive) with ACHN; 17.4 µM (inactive) with HCT-116. Also, the GI50 was 87.5 µM (inactive) with M14, 69.7 µM (inactive) with UACC-62, 25.8 µM (inactive) in the assay with OVCAR-8 and 81.5 µM (inactive) with SNB-19.

In the case of `NNC(=O)N/N=C1/C(=O)N(c2ccc(Cl)c(Cl)c2)C(=O)C(=O)C1c1nc2ccccc2o1` (stereo unspecified), the GI50 in the assay on CCRF-CEM is > 100 µM (inactive); in the assay on SW-620 it was > 100 µM (inactive); with SK-OV-3 it was > 100 µM (inactive); with UACC-257, > 100 µM (inactive); with NCI-H226, > 100 µM (inactive); in the assay on MOLT-4 it was 78.9 µM (inactive). For the same compound, the GI50 in the assay on OVCAR-4, in the assay on HOP-62, in the assay with OVCAR-3, with Malme-3M, with LOX IMVI and with ACHN was > 100 µM (inactive) throughout. The GI50 in the assay on HCT-116 was > 100 µM (inactive); in the assay with M14, > 100 µM (inactive); with UACC-62 it was 67.1 µM (inactive); in the assay with OVCAR-8, > 100 µM (inactive); in the assay on SNB-19 it was 29.5 µM (inactive).

`O=c1cccccc1NCCOCCNc1cccccc1=O`: the GI50 in the assay on CCRF-CEM, in the assay with SW-620, in the assay on SK-OV-3, in the assay on UACC-257, in the assay with NCI-H226 and in the assay with MOLT-4 was > 100 µM (inactive) in each case. The GI50 in the assay on OVCAR-4, in the assay on HOP-62, in the assay with OVCAR-3, in the assay on Malme-3M, in the assay on LOX IMVI and with ACHN was > 100 µM (inactive) each time. Further, the GI50 in the assay with HCT-116, with M14, in the assay with UACC-62, with OVCAR-8 and in the assay with SNB-19 was > 100 µM (inactive) in each case.

These data come from ChEMBL document CHEMBL1201862, “PubChem BioAssay data set” (2004).
